Measurements taken from patent US20110002897A1, “DIRECTED DIFFERENTIATION OF STEM CELLS” (Burnham Institute for Medical Research, priority 2009, published 2011).
Entries after “also recorded” stand apart in the source; their conditions may differ.

Assays:
[1] = tested on: ALK 5, 4, 7; conditions: Tojo et al. 2005; cited from earlier work
[2] = tested on: H9 hESCs; test: Feeder-free neural induction on Matrigel, PAX6/Nestin by FACS and immunostaining; type: cell-based, human; conditions: for total H9 hESCs differentiated into PAX6+/Nestin+ cells (FACS): 10 μM inhibitor together with 100 ng/mL MK+DAP
[3] = tested on: ERK1/2; test: Western blot of phospho-ERK1/2 (MAPK pathway); type: cell-based, human; conditions: 100 ng/mL, 24 hr
Source text: (§1) The signal transduction pathway(s) involved in this highly efficient neural conversion was addressed. The PI3K/MAPK pathways were focused on since MK-induced activation of both pathways has been reported (Kadomatsu et al. Cancer Lett. 204:127-143, 2004; Stoica et al. JBC 277:35990-35998, 2002). Since both pathways are already active in undifferentiated hESCs and necessary for their growth (Bendall et al. Nature 448:1015-1021, 2007; Vallier et al. J. Cell. Sci. 118:4495-4509, 2005; Xu et al. Nat. Methods 2:185-190, 2005), cells were exposed to high concentrations (100 ng/mL) of MK, IGF-1, and FGF-2 for 24 hr and phosphorylation levels of AKT and ERK1/2 were compared (FIG. 4a).
(§2) Cell lysates were prepared in RIPA buffer containing protease and phosphatase inhibitors (Pierce). 4-12% gradient gels (NuPage) were used with Invitrogen's SureLock Mini-Cell and gel-to-membrane transfer was performed with the XCell Blot Module (Invitrogen). The following primary antibodies were used: goat MK (R&D), mouse and rabbit GAPDH (1:1000, Santa Cruz), p-AKT 5473 and total AKT (1:1000, Cell Signaling Technologies), phospho-ERK1/2 and total ERK1/2 (1:1000, Cell Signaling Technologies). The following secondary antibodies were used: donkey anti-mouse Alexa 680 (Invitrogen), donkey anti-rabbit Alexa 680, donkey anti-rabit 800 (Rockland), donkey anti-mouse 800. Western Blots were imaged using the Odyssey Infrared Imaging System (LI-COR).

[4] = tested on: AKT; test: Western blot of AKT phosphorylation at Serine 473 (PI3K pathway); type: cell-based, human; conditions: 100 ng/mL, 24 hr
Source text: as §1
as §2, with “Western Blots were imaged using the Odyssey Infrared Imaging System (LI-COR).” left out

[5] = tested on: hESCs (H9 cells); test: Neural tube-like (NTL) structure formation by hESC colonies grown on HS27 fibroblasts; type: cell-based, human; conditions: for NTL structures observed: MK applied together with FGF-2, or MK replaced by the factor
Experimental: To confirm that increased MK levels correlate with differentiation, EBs from hESCs and HS27-iPSCs were generated and quantitatively analyzed MK expression. […] To test if exogenously added MK may display neural-inducing activities, hESCs were cultured in the presence of recombinant MK protein using two different assays. First, manually passaged hESCs (H9 cells) were plated on HS27 fibroblasts and grown in the presence of 100 ng/mL MK. […] These NTLs expressed the typical neuroectodermal markers PAX6 and Nestin (FIG. 1d) and, when single NTLs were manually picked under microscopic guidance and attached to laminin-coated dishes, neuronal cells started migrating out from these structures (FIG. 9). […] Second, MK-induced differentiation was investigated under feeder-free conditions. Manually passaged H9-hESCs cells were plated on Matrigel and grown in 100 ng/mL MK for 6 days.
Human ESC lines H1, H9, H14, BG02, HSF-6, and HUES13 were cultured on matrigel (BD) or Geltrex (Invitrogen) in the presence of MEF-CM (DMEM/F12, 20% Knockout Serum Replacement, non-essential amino acids, 2-mercaptoethanol). In some experiments, hESCs and iPSCs were cultured in mTeSR medium (Stem Cell Technologies). Neural cells were grown in N2B27 supplement (Gibco). The following reagents were used: MK (Millipore), FGF-2 (NIH/NCI), BDNF (Peprotech), GDNF (Peprotech), FGF-8 (Peprotech), SHH (Peprotech and R&D Systems), Noggin (Peprotech), IGF-1 (Peprotech), DLL1, DLL4, Jagged1 (R&D), all-trans RA (Sigma), Forskolin (Sigma), A 81-01 (Tocris), Dorsomorphin (Sigma), PNU-74654 (Sigma), Rapamycin (Sigma), LY294002 (Tocris), U0126 (Tocris).
Cells were fixed with 4% paraformaldehyde and stained with following antibodies: anti-mouse OCT-4 (1:200, Santa Cruz, C-10), rabbit Nanog (1:200, Santa Cruz, H-155), mouse TRA 1-81 (1:200, Millipore), alpha-Fetoprotein (1:50, Santa Cruz, AFP-11), goat MK (1:100, R&D Systems), goat SOX17 (1:100, R&D), goat Brachyury (1:100, R&D), PAX6 (1:300, Covance), mouse and rabbit Tuj1 (1:500, Covance), goat OTX2 (1:1000, Neuromics), mouse Nestin (1:400, Millipore), rabbit OLIG2 (1:50, Santa Cruz, H-68), mouse HB9 (1:50, 81.5C10, Developmental Studies Hybridoma Bank), rabbit GFAP (1:1000, DAKO), rabbit and sheep TH (1:500, Pel-Freez), rabbit PTPz (1:50, Santa Cruz), goat ALK (1:50, Santa Cruz). Light-microscopic immunostaining for PAX6 with the DAB method was performed according to the manufacturer (Vector).

Cc1cccc(-c2nn(C(=S)Nc3ccccc3)cc2-c2ccnc3ccccc23)n1 [A81-01]
potency relative to SB431542 (another inhibitor of ALK 5, 4, 7) [1]: more potent

O=c1cc(N2CCOCC2)oc2c(-c3ccccc3)cccc12 [LY294002]
total H9 hESCs differentiated into PAX6+/Nestin+ cells (FACS) [2]: ~95%

N#CC(=C(/N)Sc1ccccc1N)/C(C#N)=C(\N)Sc1ccccc1N [U0126]
total H9 hESCs differentiated into PAX6+/Nestin+ cells (FACS) [2]: ~95% | PAX6 expression / neuralization in MK+DAP-treated hESC cultures ([2]; 40 μM inhibitor together with 100 ng/mL MK+DAP): dramatically reduced; also recorded: disruption of neuralization

FGF-2: fibroblast growth factor 2 (NIH/NCI)
MAPK activation (ERK1/2 phosphorylation level) [3]: significantly stronger activation

IGF-1: insulin-like growth factor 1 (Peprotech)
MAPK activation (ERK1/2 phosphorylation level) [3]: moderate level | signaling through PI3K pathway (phosphorylation level of AKT) [4]: signal through both the PI3K pathway and the MAPK pathway | NTL structures observed [5]: never observed

Jagged1: Notch ligand (R&D)
NTL structures observed [5]: never observed

delta-like 4: Notch ligand (R&D)
NTL structures observed [5]: never observed

B1: MK: 13-kDa cysteine-rich secreted heparin-binding growth and differentiation factor; recombinant protein (Millipore) (protein, UniProt P21741 21-143, looked up)
Midkine: VAKKKDKVKKGGPGSECAEWAWGPCTPSSKDCGVGFREGTCGAQTQRIRCRVPCNWKKEFGADCKYKFENWGACDGGTGTKVRQGTLKKARYNAQCQETIRVTKPCTPKTKAKAKAKKGKGKD
MAPK activation (ERK1/2 phosphorylation level) [3]: moderate level | signaling through PI3K pathway (phosphorylation level of AKT) [4]: signal through both the PI3K pathway and the MAPK pathway | total cells differentiated into PAX6+ cells ([2]; 100 ng/mL MK alone, Matrigel, feeder-free, 6 days, FACS and immunostainings): 20-40% | solitary growing hESC colonies directly differentiated into neural tube-like (NTL) structures ([5]; 100 ng/mL MK, within 6-8 days): 5-10%

B2: delta-like 1: Notch ligand (R&D) (protein, UniProt O00548 18-723, looked up)
Delta-like protein 1: QVWSSGVFELKLQEFVNKKGLLGNRNCCRGGAGPPPCACRTFFRVCLKHYQASVSPEPPCTYGSAVTPVLGVDSFSLPDGGGADSAFSNPIRFPFGFTWPGTFSLIIEALHTDSPDDLATENPERLISRLATQRHLTVGEEWSQDLHSSGRTDLKYSYRFVCDEHYYGEGCSVFCRPRDDAFGHFTCGERGEKVCNPGWKGPYCTEPICLPGCDEQHGFCDKPGECKCRVGWQGRYCDECIRYPGCLHGTCQQPWQCNCQEGWGGLFCNQDLNYCTHHKPCKNGATCTNTGQGSYTCSCRPGYTGATCELGIDECDPSPCKNGGSCTDLENSYSCTCPPGFYGKICELSAMTCADGPCFNGGRCSDSPDGGYSCRCPVGYSGFNCEKKIDYCSSSPCSNGAKCVDLGDAYLCRCQAGFSGRHCDDNVDDCASSPCANGGTCRDGVNDFSCTCPPGYTGRNCSAPVSRCEHAPCHNGATCHERGHRYVCECARGYGGPNCQFLLPELPPGPAVVDLTEKLEGQGGPFPWVAVCAGVILVLMLLLGCAAVVVCVRLRLQKHRPPADPCRGETETMNNLANCQREKDISVSIIGATQIKNTNKKADFHGDHSADKNGFKARYPAVDYNLVQDLKGDDTAVRDAHSKRDTKCQPQGSSGEEKGTPTTLRGGEASERKRPDSGCSTSKDTKYQSVYVISEEKDECVIATEV
NTL structures observed [5]: never observed

B3: Noggin: BMP antagonist, recombinant protein (Peprotech) (protein, UniProt Q13253 28-232, looked up)
Noggin: QHYLHIRPAPSDNLPLVDLIEHPDPIFDPKEKDLNETLLRSLLGGHYDPGFMATSPPEDRPGGGGGAAGGAEDLAELDQLLRQRPSGAMPSEIKGLEFSEGLAQGKKQRLSKKLRRKLQMWLWSQTFCPVLYAWNDLGSRFWPRYVKVGSCFSKRSCSVPEGMVCKPSKSVHLTVLRWRCQRRGGQRCGWIPIQYPIISECKCSC
NTL structures observed [5]: never observed
